In publication PMC10483676 (ACS Omega, 2023):

Molecular target: urease enzyme from the Jack bean (Canavalia ensiformis) (Canavalia ensiformis, UniProt P07374)
Test: In vitro urease assay
Format: biochemical

Chain of urease enzyme from the Jack bean (Canavalia ensiformis) (P07374 whole entry, looked up): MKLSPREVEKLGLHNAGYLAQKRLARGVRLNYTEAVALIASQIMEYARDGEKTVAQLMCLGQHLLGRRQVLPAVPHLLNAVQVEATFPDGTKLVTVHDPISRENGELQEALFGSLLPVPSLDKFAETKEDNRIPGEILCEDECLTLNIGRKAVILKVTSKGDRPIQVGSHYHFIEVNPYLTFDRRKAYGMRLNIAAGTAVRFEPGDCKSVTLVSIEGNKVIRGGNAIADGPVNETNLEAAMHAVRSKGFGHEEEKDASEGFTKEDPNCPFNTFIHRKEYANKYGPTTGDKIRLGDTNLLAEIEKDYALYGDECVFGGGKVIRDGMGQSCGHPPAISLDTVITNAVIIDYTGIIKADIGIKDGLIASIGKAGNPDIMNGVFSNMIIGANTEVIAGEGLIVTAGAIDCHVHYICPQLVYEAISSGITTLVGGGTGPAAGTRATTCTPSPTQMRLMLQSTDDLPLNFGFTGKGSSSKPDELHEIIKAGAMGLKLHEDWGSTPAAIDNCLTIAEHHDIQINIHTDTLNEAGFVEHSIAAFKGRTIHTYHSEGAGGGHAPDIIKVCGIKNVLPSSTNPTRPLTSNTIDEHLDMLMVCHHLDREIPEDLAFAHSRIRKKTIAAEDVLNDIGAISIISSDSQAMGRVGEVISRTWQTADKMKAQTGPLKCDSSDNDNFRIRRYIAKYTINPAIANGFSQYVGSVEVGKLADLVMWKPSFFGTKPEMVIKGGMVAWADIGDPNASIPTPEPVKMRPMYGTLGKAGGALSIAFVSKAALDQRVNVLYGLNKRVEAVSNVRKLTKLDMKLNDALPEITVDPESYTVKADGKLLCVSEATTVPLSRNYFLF

Row | SMILES | IC50 [µM] | inhibitory potential fold higher than thiourea (relative to thiourea IC50) [fold]
1 | COc1ccc(-c2nnc3sc(COc4ccc(O)cc4)nn23)cc1 [4b] | 25.2 ± 0.56 | 
2 | Oc1ccccc1OCc1nn2c(-c3cccc(Br)c3)nnc2s1 [4g] | 4.5 ± 0.13 | 
3 | Oc1ccc(OCc2nn3c(-c4cccc(Br)c4)nnc3s2)cc1 [4h] | 6.79 ± 0.24 | 
4 | COc1ccc(C2=Nn3c(nnc3-c3ccc(OC)cc3)SC2)cc1 [5a] | 5.91 ± 0.13 | 
5 | COc1ccc(-c2nnc3n2N=C(c2ccc(Cl)cc2)CS3)cc1 [5b] | 8.37 ± 0.16 | 
6 | COc1ccc(-c2nnc3n2N=C(c2ccc(F)cc2)CS3)cc1 [5c] | 6.93 ± 0.14 | 
7 | COc1ccc(-c2nnc3n2N=C(c2ccc(C)cc2)CS3)cc1 [5d] | 5.16 ± 0.14 | 
8 | COc1ccc(-c2nnc3n2N=C(c2cccc4ccccc24)CS3)cc1 [5f] | 10.5 ± 0.26 | 
9 | COc1ccc(-c2nnc3n2N=C(c2ccc(Cl)c(Cl)c2)CS3)cc1 [5h] | 5.3 ± 0.17 | 
10 | COc1ccc(C2=Nn3c(nnc3-c3cccc(Br)c3)SC2)cc1 [5i] | 9.55 ± 0.41 | 
11 | Clc1ccc(C2=Nn3c(nnc3-c3cccc(Br)c3)SC2)cc1 [5j] | 11.5 ± 0.38 | 
12 | Cc1ccc(C2=Nn3c(nnc3-c3cccc(Br)c3)SC2)cc1 [5l] | 5.56 ± 0.12 | 
13 | Brc1cccc(-c2nnc3n2N=C(c2cccc4ccccc24)CS3)c1 [5n] | 7.2 ± 0.18 | 

More lines, now with the values ahead:

Row | IC50 [µM] | inhibitory potential fold higher than thiourea (relative to thiourea IC50) [fold] | SMILES
14 | 7.72 ± 0.31 |  | O=[N+]([O-])c1ccc(C2=Nn3c(nnc3-c3cccc(Br)c3)SC2)cc1 [5o]
15 | 13 ± 0.37 |  | Clc1ccc(C2=Nn3c(nnc3-c3cccc(Br)c3)SC2)cc1Cl [5p]
16 | 12 ± 0.25 |  | COc1ccc(-c2nnc3sc(COc4ccccc4C)nn23)cc1 [compound 4c]
17 | 39 ± 0.53 |  | COc1ccc(-c2nnc3sc(COc4ccc(C)cc4)nn23)cc1 [compound 4d]
18 | 9.63 ± 0.32 |  | Cc1ccccc1OCc1nn2c(-c3cccc(Br)c3)nnc2s1 [compound 4i]
19 | 4.67 ± 0.15 |  | Cc1ccc(OCc2nn3c(-c4cccc(Br)c4)nnc3s2)cc1 [compound 4j]
20 | 46.8 ± 0.63 |  | Fc1ccc(OCc2nn3c(-c4cccc(Br)c4)nnc3s2)cc1 [compound 4l]
21 | 3.33 ± 0.11 | ~6.5 | Fc1ccc(C2=Nn3c(nnc3-c3cccc(Br)c3)SC2)cc1 [compound 5k]
